Tests used:
barnyardgrass [1] = assay: Test C preemergence; format: in vivo, Echinochloa crusgalli; conditions: for Barnyardgrass plant response rating: 500 g ai/ha, preemergence, 0 to 100 scale (0 no effect, 100 complete control); for Plant response rating, Barnyardgrass: Preemergence, 125 g ai/ha, 0 to 100 scale, 0 no effect, 100 complete control
How it was run: (§1)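 Soil-applied (pre) and foliar (post, 1–2 leaf, 2–10 cm) sprays; surfactant-containing non-phytotoxic solvent vehicle; loam/sand substrate. Readout: visual % control at 10 d, greenhouse, versus untreated.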

blackgrass [2] = assay: Test C preemergence; format: in vivo, Alopecurus myosuroides; conditions: for Blackgrass plant response rating: 500 g ai/ha, preemergence, 0 to 100 scale (0 no effect, 100 complete control); for Plant response rating, Blackgrass: Preemergence, 125 g ai/ha, 0 to 100 scale, 0 no effect, 100 complete control
How it was run: as §1

corn [3] = assay: Test C preemergence; format: in vivo, Zea mays; conditions: for Corn plant response rating: 500 g ai/ha, preemergence, 0 to 100 scale (0 no effect, 100 complete control); for Plant response rating, Corn: Preemergence, 125 g ai/ha, 0 to 100 scale, 0 no effect, 100 complete control
How it was run: as §1

green foxtail [4] = assay: Test C preemergence; format: in vivo, Setaria viridis; conditions: for Foxtail, Green plant response rating: 500 g ai/ha, preemergence, 0 to 100 scale (0 no effect, 100 complete control); for Plant response rating, Foxtail, Green: Preemergence, 125 g ai/ha, 0 to 100 scale, 0 no effect, 100 complete control
How it was run: as §1

kochia [5] = assay: Test C preemergence; format: in vivo, Bassia scoparia; conditions: for Kochia plant response rating: 500 g ai/ha, preemergence, 0 to 100 scale (0 no effect, 100 complete control); for Plant response rating, Kochia: Preemergence, 125 g ai/ha, 0 to 100 scale, 0 no effect, 100 complete control
How it was run: as §1

oat, wild [6] = assay: Test C preemergence; format: in vivo, Avena fatua; conditions: for Oat, Wild plant response rating: 500 g ai/ha, preemergence, 0 to 100 scale (0 no effect, 100 complete control); for Plant response rating, Oat, Wild: Preemergence, 125 g ai/ha, 0 to 100 scale, 0 no effect, 100 complete control
How it was run: as §1

pigweed, palmer [7] = assay: Test C preemergence; format: in vivo, Amaranthus palmeri; conditions: for Pigweed, Palmer plant response rating: 500 g ai/ha, preemergence, 0 to 100 scale (0 no effect, 100 complete control); for Plant response rating, Pigweed, Palmer: Preemergence, 125 g ai/ha, 0 to 100 scale, 0 no effect, 100 complete control
How it was run: as §1

ragweed [8] = assay: Test C preemergence; format: in vivo, Ambrosia artemisiifolia; conditions: for Ragweed plant response rating: 500 g ai/ha, preemergence, 0 to 100 scale (0 no effect, 100 complete control); for Plant response rating, Ragweed: Preemergence, 125 g ai/ha, 0 to 100 scale, 0 no effect, 100 complete control
How it was run: as §1

ryegrass, Italian [9] = assay: Test C preemergence; format: in vivo, Lolium multiflorum; conditions: for Ryegrass, Italian plant response rating: 500 g ai/ha, preemergence, 0 to 100 scale (0 no effect, 100 complete control); for Plant response rating, Ryegrass, Italian: Preemergence, 125 g ai/ha, 0 to 100 scale, 0 no effect, 100 complete control
How it was run: as §1

soybean [10] = assay: Test C preemergence; format: in vivo, Glycine max; conditions: for Soybean plant response rating: 500 g ai/ha, preemergence, 0 to 100 scale (0 no effect, 100 complete control); for Plant response rating, Soybean: Preemergence, 125 g ai/ha, 0 to 100 scale, 0 no effect, 100 complete control
How it was run: as §1

wheat [11] = assay: Test C preemergence; format: in vivo, Triticum aestivum; conditions: for Wheat plant response rating: 500 g ai/ha, preemergence, 0 to 100 scale (0 no effect, 100 complete control); for Plant response rating, Wheat: Preemergence, 125 g ai/ha, 0 to 100 scale, 0 no effect, 100 complete control
How it was run: as §1

barnyardgrass [12] = assay: Test C postemergence; format: in vivo, Echinochloa crusgalli; conditions: 10 days, 0 to 100 scale (0 no effect, 100 complete control)
How it was run: as §1

blackgrass [13] = assay: Test C postemergence; format: in vivo, Alopecurus myosuroides; conditions: 10 days, 0 to 100 scale (0 no effect, 100 complete control)
How it was run: as §1

corn [14] = assay: Test C postemergence; format: in vivo, Zea mays; conditions: 10 days, 0 to 100 scale (0 no effect, 100 complete control)
How it was run: as §1

green foxtail [15] = assay: Test C postemergence; format: in vivo, Setaria viridis; conditions: 10 days, 0 to 100 scale (0 no effect, 100 complete control)
How it was run: as §1

kochia [16] = assay: Test C postemergence; format: in vivo, Bassia scoparia; conditions: 10 days, 0 to 100 scale (0 no effect, 100 complete control)
How it was run: as §1

oat, wild [17] = assay: Test C postemergence; format: in vivo, Avena fatua; conditions: 10 days, 0 to 100 scale (0 no effect, 100 complete control)
How it was run: as §1

pigweed, palmer [18] = assay: Test C postemergence; format: in vivo, Amaranthus palmeri; conditions: 10 days, 0 to 100 scale (0 no effect, 100 complete control)
How it was run: as §1

ragweed [19] = assay: Test C postemergence; format: in vivo, Ambrosia artemisiifolia; conditions: 0 to 100 scale (0 no effect, 100 complete control), 10 days
How it was run: as §1

ryegrass, Italian [20] = assay: Test C postemergence; format: in vivo, Lolium multiflorum; conditions: 0 to 100 scale (0 no effect, 100 complete control), 10 days
How it was run: as §1

soybean [21] = assay: Test C postemergence; format: in vivo, Glycine max; conditions: 0 to 100 scale (0 no effect, 100 complete control), 10 days
How it was run: as §1

wheat [22] = assay: Test C postemergence; format: in vivo, Triticum aestivum; conditions: 0 to 100 scale (0 no effect, 100 complete control), 10 days
How it was run: as §1

galium = assay: Test C postemergence; format: in vivo, Galium aparine; conditions: 10 days, 0 to 100 scale (0 no effect, 100 complete control)
How it was run: as §1

horseweed = assay: Test C postemergence; format: in vivo, Erigeron canadensis; conditions: 10 days, 0 to 100 scale (0 no effect, 100 complete control)
How it was run: as §1

barnyardgrass [23] = assay: Test D flooded paddy test; format: in vivo, Echinochloa crus-galli; conditions: 250 g ai/ha, applied to paddy water, visual rating after 13 to 14 days, scale 0 to 100 (0 no effect, 100 complete control)
How it was run: (§2)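 Compounds go straight into paddy water over 2-leaf plants in pots flooded to 3 cm. Greenhouse holding lasts 13 to 14 days. Injury is scored by eye against controls from 0 (none) to 100 (complete control).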

ducksalad = assay: Test D flooded paddy test; format: in vivo, Heteranthera limosa; conditions: 250 g ai/ha, applied to paddy water, visual rating after 13 to 14 days, scale 0 to 100 (0 no effect, 100 complete control)
How it was run: as §2

rice = assay: Test D flooded paddy test; format: in vivo, Oryza sativa; conditions: 250 g ai/ha, applied to paddy water, visual rating after 13 to 14 days, scale 0 to 100 (0 no effect, 100 complete control)
How it was run: as §2

sedge, umbrella = assay: Test D flooded paddy test; format: in vivo, Cyperus difformis; conditions: 250 g ai/ha, applied to paddy water, visual rating after 13 to 14 days, scale 0 to 100 (0 no effect, 100 complete control)
How it was run: as §2

Cc1ccc(-n2cnc(CS(C)(=N)=O)n2)cc1C(=O)N1C[C@H](C)Oc2c(Cl)cccc21 (stereo partly drawn) [Compound 403]
60: Plant response rating, Blackgrass (blackgrass [2]) | Plant response rating, Kochia (kochia [5]) | Plant response rating, Horseweed (horseweed; 500 g ai/ha, postemergence)
0: Plant response rating, Oat, Wild (oat, wild [6]) | Plant response rating, Wheat (wheat [11]) | Plant response rating, Barnyardgrass (Flood) (barnyardgrass [23]) | Plant response rating, Rice (Flood) (rice)
70: Barnyardgrass plant response rating (barnyardgrass [1]) | Plant response rating, Barnyardgrass (barnyardgrass [12]; 500 g ai/ha, postemergence) | Plant response rating, Ragweed (ragweed [19]; Postemergence, 125 g ai/ha)
30: Plant response rating, Pigweed, Palmer (pigweed, palmer [7]) | Plant response rating, Ragweed (ragweed [8]) | Plant response rating, Barnyardgrass (barnyardgrass [12]; Postemergence, 125 g ai/ha) | Plant response rating, Oat, Wild (oat, wild [17]; Postemergence, 125 g ai/ha)
40: Plant response rating, Barnyardgrass (barnyardgrass [1]) | Oat, Wild plant response rating (oat, wild [6]) | Plant response rating, Ryegrass, Italian (ryegrass, Italian [9])
10: Plant response rating, Corn (corn [3])
90: Plant response rating, Foxtail, Green (green foxtail [4]) | Ryegrass, Italian plant response rating (ryegrass, Italian [9]) | Soybean plant response rating (soybean [10]) | Plant response rating, Foxtail, Green (green foxtail [15]; 500 g ai/ha, postemergence) | Plant response rating, Oat, Wild (oat, wild [17]; 500 g ai/ha, postemergence) | Plant response rating, Pigweed, Palmer (pigweed, palmer [18]; Postemergence, 125 g ai/ha)
20: Plant response rating, Blackgrass (blackgrass [13]; Postemergence, 125 g ai/ha) | Plant response rating, Corn (corn [14]; Postemergence, 125 g ai/ha) | Plant response rating, Wheat (wheat [22]; Postemergence, 125 g ai/ha)
80: Blackgrass plant response rating (blackgrass [2]) | Ragweed plant response rating (ragweed [8]) | Plant response rating, Soybean (soybean [10]) | Plant response rating, Blackgrass (blackgrass [13]; 500 g ai/ha, postemergence) | Plant response rating, Corn (corn [14]; 500 g ai/ha, postemergence) | Plant response rating, Kochia (kochia [16]; 500 g ai/ha, postemergence) | Plant response rating, Kochia (kochia [16]; Postemergence, 125 g ai/ha)
50: Corn plant response rating (corn [3]) | Wheat plant response rating (wheat [11]) | Plant response rating, Foxtail, Green (green foxtail [15]; Postemergence, 125 g ai/ha) | Plant response rating, Ryegrass, Italian (ryegrass, Italian [20]; Postemergence, 125 g ai/ha) | Plant response rating, Ducksalad (Flood) (ducksalad)
100: Foxtail, Green plant response rating (green foxtail [4]) | Kochia plant response rating (kochia [5]) | Pigweed, Palmer plant response rating (pigweed, palmer [7]) | Plant response rating, Pigweed, Palmer (pigweed, palmer [18]; 500 g ai/ha, postemergence) | Plant response rating, Soybean (soybean [21]; Postemergence, 125 g ai/ha) | Plant response rating, Galium (galium; 500 g ai/ha, postemergence) | Plant response rating, Galium (galium; Postemergence, 125 g ai/ha)
45: Plant response rating, Sedge, Umbrella (Flood) (sedge, umbrella)

COC(C)(C)c1ncn(-c2ccc(C)c(C(=O)N3C[C@H](C)Oc4c(Cl)cccc43)c2)n1 [Compound 343]
20: Plant response rating, Barnyardgrass (barnyardgrass [12]; Postemergence, 125 g ai/ha) | Plant response rating, Wheat (wheat [22]; Postemergence, 125 g ai/ha)
50: Plant response rating, Blackgrass (blackgrass [2]) | Plant response rating, Foxtail, Green (green foxtail [15]; Postemergence, 125 g ai/ha) | Plant response rating, Pigweed, Palmer (pigweed, palmer [18]; Postemergence, 125 g ai/ha)
35: Plant response rating, Barnyardgrass (Flood) (barnyardgrass [23])
60: Corn plant response rating (corn [3]) | Plant response rating, Oat, Wild (oat, wild [17]; Postemergence, 125 g ai/ha) | Plant response rating, Ragweed (ragweed [19]; Postemergence, 125 g ai/ha) | Plant response rating, Wheat (wheat [22]; 500 g ai/ha, postemergence)
30: Plant response rating, Ragweed (ragweed [8]) | Plant response rating, Soybean (soybean [10]) | Plant response rating, Wheat (wheat [11]) | Plant response rating, Horseweed (horseweed; Postemergence, 125 g ai/ha)
90: Blackgrass plant response rating (blackgrass [2]) | Plant response rating, Kochia (kochia [5]) | Oat, Wild plant response rating (oat, wild [6]) | Plant response rating, Oat, Wild (oat, wild [6]) | Wheat plant response rating (wheat [11]) | Plant response rating, Blackgrass (blackgrass [13]; 500 g ai/ha, postemergence) | Plant response rating, Corn (corn [14]; Postemergence, 125 g ai/ha) | Plant response rating, Foxtail, Green (green foxtail [15]; 500 g ai/ha, postemergence) | Plant response rating, Kochia (kochia [16]; 500 g ai/ha, postemergence) | Plant response rating, Oat, Wild (oat, wild [17]; 500 g ai/ha, postemergence) | Plant response rating, Ryegrass, Italian (ryegrass, Italian [20]; 500 g ai/ha, postemergence)
70: Ragweed plant response rating (ragweed [8]) | Plant response rating, Barnyardgrass (barnyardgrass [12]; 500 g ai/ha, postemergence) | Plant response rating, Ryegrass, Italian (ryegrass, Italian [20]; Postemergence, 125 g ai/ha)
40: Plant response rating, Corn (corn [3]) | Plant response rating, Blackgrass (blackgrass [13]; Postemergence, 125 g ai/ha)
100: Barnyardgrass plant response rating (barnyardgrass [1]) | Plant response rating, Barnyardgrass (barnyardgrass [1]) | Foxtail, Green plant response rating (green foxtail [4]) | Plant response rating, Foxtail, Green (green foxtail [4]) | Kochia plant response rating (kochia [5]) | Pigweed, Palmer plant response rating (pigweed, palmer [7]) | Plant response rating, Pigweed, Palmer (pigweed, palmer [7]) | Ryegrass, Italian plant response rating (ryegrass, Italian [9]) | Plant response rating, Ryegrass, Italian (ryegrass, Italian [9]) | Soybean plant response rating (soybean [10]) | Plant response rating, Corn (corn [14]; 500 g ai/ha, postemergence) | Plant response rating, Pigweed, Palmer (pigweed, palmer [18]; 500 g ai/ha, postemergence) | Plant response rating, Soybean (soybean [21]; 500 g ai/ha, postemergence) | Plant response rating, Soybean (soybean [21]; Postemergence, 125 g ai/ha) | Plant response rating, Galium (galium; 500 g ai/ha, postemergence) | Plant response rating, Galium (galium; Postemergence, 125 g ai/ha)
45: Plant response rating, Ducksalad (Flood) (ducksalad)
80: Plant response rating, Kochia (kochia [16]; Postemergence, 125 g ai/ha) | Plant response rating, Ragweed (ragweed [19]; 500 g ai/ha, postemergence) | Plant response rating, Horseweed (horseweed; 500 g ai/ha, postemergence)
15: Plant response rating, Rice (Flood) (rice)
65: Plant response rating, Sedge, Umbrella (Flood) (sedge, umbrella)
